System: Escherichia coli ATCC25922 standard strain
Assay: urinary and renal bacterial culture of acute pyelonephritis rats
Assay type: in vivo, SD rats
Conditions: gavage, 10 days; for Renal bacterial culture score: mean score, scale 1-4 of Table 10 (colony number <10, >10, >100, >1000); for Urinary bacterial A value (OD600 nm): urine culture
Procedure: Ninety male SD rats having a weight of 180-220 g are selected, wherein: ten rats are selected as a sham-operated group (only being processed with ligation, without injecting with Escherichia coli), and the remaining rats are injected with Escherichia coli ATCC25922 standard strain having a concentration of 10^8/ml according to the method (disclosed in the Chinese Journal of Laboratory Animal Science, 1998, 8(1): pages 31-34) for preparing the acute pyelonephritis model rats.
After three days, urine of the rats is collected for bacterial culture, and the growth situation of the bacteria is observed. If the result is positive, the model rats are successively established; the unqualified rats are excluded, and the operation is made again for complementing the rats. The successively established model rats are randomly divided into the model group, the norfloxacin group (66.7 mg/kg), the LM49 solid dispersion low-dose group (with the drug concentration of 3 mg/kg), the LM49 solid dispersion medium-dose group (with the drug concentration of 9 mg/kg), the LM49 solid dispersion high-dose group (with the drug concentration of 27 mg/kg), the A8 solid dispersion low-dose group (with the drug concentration of 3 mg/kg), the A8 solid dispersion medium-dose group (with the drug concentration of 9 mg/kg), and the A8 solid dispersion high-dose group (with the drug concentration of 27 mg/kg).
The rats of the sham-operated group and the model group are administrated with the normal saline of same volume by gavage, and the rats of the other groups are respectively administrated with the drugs of the corresponding dose, once a day for consecutive ten days.
After finishing administration, urine of the rats of all groups is collected (for observing the bacterial growth situation). The abdominal aorta blood of the rats is drawn (for measuring the blood routine, CD4/CD8, urine creatinine and serum creatinine in the serum; and for measuring contents of IL-1α, IL-1β, IL-6, IL-10 and MCP-1 in the serum with the ELISA method). Two kidneys of each rat are cut (wherein a part is homogenated for bacterial culture, and the other part is used for observing the pathomorphology change).

| Compound | Renal bacterial culture score (high-dose 27 mg/kg) | Urinary bacterial A value (OD600 nm) (high-dose 27 mg/kg) | Renal bacterial culture score (low-dose 3 mg/kg) | Urinary bacterial A value (OD600 nm) (low-dose 3 mg/kg) | Renal bacterial culture score (medium-dose 9 mg/kg) | Urinary bacterial A value (OD600 nm) (medium-dose 9 mg/kg) |
| --- | --- | --- | --- | --- | --- | --- |
| O=C(c1cc(OC(=O)N2CCOCC2)c(OC(=O)N2CCOCC2)cc1Cl)c1cc(Cl)ccc1OC(=O)N1CCOCC1 [A8, 4,5,2′-tris(4-morpholinemethanoyl)-2,5′-dichlorobenzophenone] | 1.5 ± 0.33^ΔΔ | 0.274 ± 0.113^ΔΔ | 3.6 ± 0.57^ | 0.332 ± 0.131^ | 2.6 ± 0.23^Δ | 0.304 ± 0.125^Δ |
| O=C(c1cc(Br)ccc1O)c1cc(O)c(O)cc1Br [LM49, 2,5′-dibromo-4,5,2′-trihydroxyldiphenylmethanone] | 1.9 ± 0.57^ΔΔ | 0.304 ± 0.109^Δ | 3.9 ± 0.32^ | 0.353 ± 0.128^ | 3.4 ± 0.52^Δ | 0.331 ± 0.100^Δ |

Source: patent US20190133968A1, “Applications of benzophenones in preparation of drug” (SHANXI MEDICAL UNIVERSITY, priority 2016, published 2019)
